Measurements reported in PubChem BioAssay (NCI).
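Growth conditions: 96-well plates. Treatment: test compound, 48 hours, 5 concentrations. Analysis: linear interpolation between bracketing concentrations; unreached endpoints set to highest concentration. At the GI50, growth is halved. TGI denotes the concentration required for complete inhibition of growth.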

What was measured:
Assay in all cases: NCI-60 cell line screen, 48 h; in the data active = GI50 below about 0.43 µM; inactive = the rest
TK-10 renal = tested on: TK-10 renal
NCI-H23 lung = tested on: NCI-H23 lung
SK-MEL-5 melanoma = tested on: SK-MEL-5 melanoma
K-562 leukemia = tested on: K-562 leukemia
HOP-62 NSCLC = tested on: HOP-62 NSCLC
HCT-15 colon = tested on: HCT-15 colon
HS 578T breast = tested on: HS 578T breast
HL-60(TB) leukemia = tested on: HL-60(TB) leukemia
A498 renal = tested on: A498 renal
NCI-H226 lung = tested on: NCI-H226 lung
HOP-92 NSCLC = tested on: HOP-92 NSCLC
NCI-H522 lung = tested on: NCI-H522 lung
786-0 renal = tested on: 786-0 renal
HCC-2998 colon = tested on: HCC-2998 colon
SF-295 CNS = tested on: SF-295 CNS
UACC-257 melanoma = tested on: UACC-257 melanoma
BT-549 breast = tested on: BT-549 breast
CCRF-CEM leukemia = tested on: CCRF-CEM leukemia
OVCAR-3 ovarian = tested on: OVCAR-3 ovarian
T-47D breast = tested on: T-47D breast
U251 CNS = tested on: U251 CNS
SNB-19 CNS = tested on: SNB-19 CNS
OVCAR-4 ovarian = tested on: OVCAR-4 ovarian
OVCAR-5 ovarian = tested on: OVCAR-5 ovarian
SK-MEL-28 melanoma = tested on: SK-MEL-28 melanoma
SN12C renal = tested on: SN12C renal
M14 melanoma = tested on: M14 melanoma
SW-620 colon = tested on: SW-620 colon

CCOc1c(Br)cc(C2C(C(=O)OC)=CN(C)C=C2C(=O)OC)cc1OC
inactive: GI50 (TK-10 renal) > 100 µM | GI50 (NCI-H23 lung) 84.9 µM | GI50 (SK-MEL-5 melanoma) 40.5 µM | GI50 (K-562 leukemia) 50.6 µM | GI50 (HOP-62 NSCLC) > 100 µM | GI50 (HCT-15 colon) 33.9 µM | GI50 (HS 578T breast) 50.4 µM | GI50 (HL-60(TB) leukemia) 37.8 µM | GI50 (A498 renal) 16.5 µM | GI50 (NCI-H226 lung) 86.3 µM | GI50 (HOP-92 NSCLC) 33.4 µM | GI50 (NCI-H522 lung) 39.7 µM | GI50 (786-0 renal) > 100 µM | GI50 (HCC-2998 colon) > 100 µM | GI50 (SF-295 CNS) 57.9 µM | GI50 (UACC-257 melanoma) 72.3 µM | GI50 (BT-549 breast) 76 µM | GI50 (CCRF-CEM leukemia) 40.1 µM | GI50 (OVCAR-3 ovarian) 45.6 µM | GI50 (T-47D breast) 45.9 µM | GI50 (U251 CNS) 42.6 µM | GI50 (SNB-19 CNS) 83.8 µM | GI50 (OVCAR-4 ovarian) 54.1 µM | GI50 (OVCAR-5 ovarian) > 100 µM | GI50 (SK-MEL-28 melanoma) > 100 µM | GI50 (SN12C renal) 78.6 µM | GI50 (M14 melanoma) 64.1 µM | GI50 (SW-620 colon) 38.6 µM
> 100 µM: TGI (TK-10 renal) | TGI (NCI-H23 lung) | TGI (SK-MEL-5 melanoma) | TGI (K-562 leukemia) | TGI (HOP-62 NSCLC) | TGI (HCT-15 colon) | TGI (HS 578T breast) | TGI (HL-60(TB) leukemia) | TGI (NCI-H226 lung) | TGI (HOP-92 NSCLC) | TGI (NCI-H522 lung) | TGI (786-0 renal) | TGI (HCC-2998 colon) | TGI (SF-295 CNS) | TGI (UACC-257 melanoma) | TGI (BT-549 breast) | TGI (CCRF-CEM leukemia) | TGI (OVCAR-3 ovarian) | TGI (T-47D breast) | TGI (U251 CNS) | TGI (SNB-19 CNS) | TGI (OVCAR-4 ovarian) | TGI (OVCAR-5 ovarian) | TGI (SK-MEL-28 melanoma) | TGI (SN12C renal) | TGI (M14 melanoma) | TGI (SW-620 colon)
98.2 µM: TGI (A498 renal)
